This is an account of results in US8084210B2, “Methods for the assessment of drug response” (Theranostics Laboratory, priority 2008, dated 2011).

The conditions of data set [1]: in vivo; cited from earlier work.
In a further data set the target is T1, P2Y12 receptor (Homo sapiens, UniProt Q9H244).
T1 construct: light transmittance through whole blood, to measure platelet agglutination; from tissue; host or cells: Platelets in citrated whole blood (arterial or venous) of patients
Kind of data set: Platelet function by VerifyNow P2Y12 analyser in elective PCI patients given clopidogrel (PRINC trial). It counts as in vivo. The conditions noted are these: for inhibition at 75 mg / inhibition at 150 mg: human. An excerpt:
The study protocol was approved by the Northern Regional Ethics Committee of New Zealand. Eligible patients were defined as all-corners for elective percutaneous coronary intervention who were on aspirin and naëve to clopidogrel. […] Patients were randomised into equal groups using a computerised random number generator. Block randomisation was not used, explaining the unbalanced grouping to treatment allocations. Clopidogrel was broken in half and repackaged into gelatine capsules packed with lactose powder to match placebo. Investigators and subjects were blinded to treatment allocation. A target of 120 patients was predefined for completion of the study. […] At discharge patients were randomized to receive either 75 mg or 150 mg once daily for one week and regular 75 mg once daily dosing thereafter. Adherence to the treatment regimen was tested by a phone interview and pill count. Arterial blood was sampled through 6Fr femoral sheaths and transferred immediately to 3.2% citrate 2 ml vacutainer tubes (Cat. #454321 Greiner Vacuette®, Greiner, Kremsmuenster, Austria), using a 20 G needle and syringe. After sheath removal blood was drawn by venepucture directly into vacutainer tubes. After collection the tubes were inverted four times for adequate mixing of the anticoagulant and left for ten minutes at 24 degrees before testing. Platelet function was tested at baseline, two, four and seven hours from first clopidogrel loading and at seven days. […] This device uses fibrinogen coated microbeads, an agonist of adenosine diphosphate (ADP) and light transmittance through whole blood, to measure platelet agglutination. The output of the device is measured as the proprietary platelet response unit (PRU). […] Percent inhibition is reported as the percentage change from baseline using a BASE unit. This BASE unit is derived from a second channel run parallel with the ADP channel using the agonist iso-TRAP (Thrombin Receptor Activating Peptide). From this point “percentage inhibition” will reflect this formula: % Inhibition=[(BASE−PRU)×100]/BASE. […] (2004) and Lev E I et al (2006)). The principal time point of interest for comparisons of genotype to drug response was specified as two hours after the first loading dose as at this point all patients had received only 600 mg. […] The effect of different dosages on response in genotype groups was assessed at four hours.

Data set [2] has as its system ADP-induced platelet aggregation or activation. The conditions noted are these: low inhibition of ADP-induced platelet aggregation or activation; cited from earlier work.
The conditions of data set [3]: cited from earlier work.

Values joined by “and” are separate entries in the source; they are usually repeats but may differ in a detail not shown here. Equal values may be shown once. Read-outs that look alike come from different tables or passages of the source. A value given as a limit tells only on which side of the number the result lay.

T1 sequence (Q9H244 whole entry): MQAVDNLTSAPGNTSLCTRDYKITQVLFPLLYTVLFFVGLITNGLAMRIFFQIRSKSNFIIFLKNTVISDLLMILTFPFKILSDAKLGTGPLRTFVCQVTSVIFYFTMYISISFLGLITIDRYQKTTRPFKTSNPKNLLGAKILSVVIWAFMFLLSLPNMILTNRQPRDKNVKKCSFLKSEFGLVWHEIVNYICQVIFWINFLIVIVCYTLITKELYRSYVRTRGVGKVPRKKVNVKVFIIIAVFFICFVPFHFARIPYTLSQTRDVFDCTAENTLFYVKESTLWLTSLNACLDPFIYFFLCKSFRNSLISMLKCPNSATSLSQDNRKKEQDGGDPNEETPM

As to `CC(=O)Oc1cc2c(s1)CCN(C(C(=O)C1CC1)c1ccccc1F)C2` (stereo not shown) [prasugrel, 5-[2-cyclopropyl-1-(2-fluorophenyl)-2-oxoethyl]-4,5,6,7-tetrahydrothieno[3,2-c]pyridin-2-yl acetate], the Elimination half life in data set [1] was 3.7 h.
As for `COC(=O)[C@H](c1ccccc1Cl)N1CCc2sccc2C1` [clopidogrel, (+)-(S)-methyl 2-(2-chlorophenyl)-2-(6,7-dihydrothieno[3,2-c]pyridin-5(4H)-yl)acetate], the Platelet inhibition is on record as 24+/−18% on P2Y12 receptor (75 mg maintenance dose, CYP2C19*2 or *4 carriers); 16+/−13% on P2Y12 receptor (600 mg loading dose, CYP2C19*2 or *4 carriers); 26+/−20% on P2Y12 receptor (2 hours after 600 mg, CYP2C19*1*1 carriers); 13+/−20% on P2Y12 receptor (2 hours after 600 mg, CYP2C19*2, *4 and *17 carriers); 23.7% on P2Y12 receptor (four hours, 600 mg loading dose); 35+/−27% at P2Y12 receptor (four hours, 600 mg loading dose, CYP2C19*1*1 carriers). The Platelet inhibition is 51+/−28% on P2Y12 receptor (four hours, 1200 mg loading dose, CYP2C19*1*1 carriers); 42% on P2Y12 receptor (four hours, 1,200 mg split loading dose); 49+/−31% at P2Y12 receptor (higher (150 mg) maintenance dose, CYP2C19*2 or *4 carriers); 36+/−24% at P2Y12 receptor (higher (1200 mg) loading dose, CYP2C19*2 or *4 carriers); 35.7% on P2Y12 receptor (seven days, 600 mg loading dose group); 44.5% at P2Y12 receptor (seven days, 1,200 mg split loading dose group). Also, the Platelet inhibition at P2Y12 receptor (seven hours, 600 mg loading dose) was 28.7%; at P2Y12 receptor (seven hours, 1,200 mg split loading dose), 48.9%; on P2Y12 receptor (seven hours, two individuals carrying both 2C19 and 2C9 poor responder genotypes) it was 8% and 11%; at P2Y12 receptor (two hours after 600 mg, two P2Y12 H2 haplotype CC homozygotes) it was less than 2%. The “Non-responders (seven hour percent inhibition <10%)” value on P2Y12 receptor (600 mg (low dose) group, six out of 26) came to 26%; on P2Y12 receptor (1,200 mg (high dose) group, two out of 37) it was 5%. Moreover, the inhibition at 75 mg against P2Y12 receptor (75 mg daily maintenance dose, CYP2C19*1*1 carriers) came out at 40%; at P2Y12 receptor (one week, 75 mg once daily), 28.8%. Moreover, the inhibition at 150 mg at P2Y12 receptor (150 mg daily maintenance dose, CYP2C19*1*1 carriers) amounted to 51%; against P2Y12 receptor (one week, 150 mg once daily) it was 49.8%. Besides, in data set [2], the “Patients classified as poor responders or resistant” value is recorded as 20-40%. Further, the Bioavailability result in data set [3] (in vivo) is recorded as “approximately 50%”. Besides, in data set [3] (in vivo), the Elimination half life was 7.2 to 7.6 h. For the same compound, the “Time to peak effect after dosing” value in data set [3] (in vivo) is reported as “six”. Moreover, the “Share of a dose converted by esterases to inactive metabolites” value in data set [3] (inactivation pathway) is roughly 85%.

By inhibition is commonly meant the drop in the measured response relative to a control, in per cent. Higher therefore signals a strong effect.
